Source: US6583180B2, “Glucocorticoid receptor modulators” (Abbott Laboratories, priority 2001, dated 2003)

Target: T1, Human glucocorticoid receptors (Homo sapiens, UniProt P04150)
T1 construct: made in house; host or cells: Sf9 insect cells, recombinant baculovirus (BAC-TO-BAC)
T1 sequence (P04150 1-777): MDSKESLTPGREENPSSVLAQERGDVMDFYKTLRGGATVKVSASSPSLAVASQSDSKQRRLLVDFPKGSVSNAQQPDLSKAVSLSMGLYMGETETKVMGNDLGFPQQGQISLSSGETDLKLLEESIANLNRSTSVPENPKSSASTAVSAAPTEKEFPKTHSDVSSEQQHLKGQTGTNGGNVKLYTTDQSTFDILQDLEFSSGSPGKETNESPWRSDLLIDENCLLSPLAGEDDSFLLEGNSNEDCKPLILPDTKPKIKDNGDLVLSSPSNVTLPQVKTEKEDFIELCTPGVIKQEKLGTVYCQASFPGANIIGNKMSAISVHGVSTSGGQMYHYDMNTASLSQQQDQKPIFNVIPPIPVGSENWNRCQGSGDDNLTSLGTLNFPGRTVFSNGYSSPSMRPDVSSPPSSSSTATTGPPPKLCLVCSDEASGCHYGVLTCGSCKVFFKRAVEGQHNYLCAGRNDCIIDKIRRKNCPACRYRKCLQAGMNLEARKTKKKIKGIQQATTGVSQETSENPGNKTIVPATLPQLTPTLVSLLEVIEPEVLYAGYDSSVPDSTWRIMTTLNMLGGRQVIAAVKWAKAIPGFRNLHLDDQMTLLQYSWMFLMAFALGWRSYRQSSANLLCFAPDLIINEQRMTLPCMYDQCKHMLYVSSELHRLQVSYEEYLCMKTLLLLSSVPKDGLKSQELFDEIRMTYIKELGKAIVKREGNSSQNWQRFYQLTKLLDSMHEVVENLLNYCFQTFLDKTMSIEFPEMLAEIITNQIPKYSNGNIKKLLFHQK
Assay: Radioligand filter binding assay, displacement of 3[H]-dexamethasone from hGR
Conditions: read-out: GR Binding (% Inhibition at 1.7 μM)
Procedure, shortened: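 Recombinant hGR extract from baculovirus-infected Sf9 cells (final ~1 nM receptor) incubated with ³H-dexamethasone and test compound dilutions in duplicate, EDTA/phosphate pH 8 buffer with MTG, overnight (15-20 h) at +4° C. Bound label collected on PEI-treated GF/B filters and scintillation-counted; IC50 from four-parameter fit of corrected cpm.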

Q: With Cc1c(NS(C)(=O)=O)cccc1N(Cc1ccc(Oc2ccc(Cl)c(OCC(=O)O)c2)cc1)Cc1ccc(C(=O)c2ccccc2)cc1 [Example 314, (5-(4-(((4-benzoylbenzyl)(2-methyl-3-((methylsulfonyl)amino)phenyl)amino)methyl)phenoxy)-2-chlorophenoxy)acetic acid] as the compound, how does the inhibition at 1.7 µM read?
A: 96.6%

Q: How did the inhibition at 1.7 µM turn out when Cc1c(NS(C)(=O)=O)cccc1N(Cc1ccc(Br)cc1)Cc1ccc(Oc2ccc(Cl)c(OCC(=O)O)c2)cc1 [Example 308, (5-(4-(((4-bromobenzyl)(2-methyl-3-((methylsulfonyl)amino)phenyl)amino)methyl)phenoxy)-2-chlorophenoxy)acetic acid] was run?
A: 95.7%

Q: For Cc1c(NS(C)(=O)=O)cccc1N(Cc1ccccc1)Cc1ccc(Oc2cccc(OCCCC(=O)N3CCC(C(=O)O)CC3)c2)cc1 [Example 280, 1-[4-(3-{4-[(benzyl{2-methyl-3-[(methylsulfonyl)amino]phenyl}amino)methyl]phenoxy}phenoxy)butanoyl]piperidine-4-carboxylic acid], which inhibition at 1.7 µM is on record?
A: 89.5%

Q: How did the inhibition at 1.7 µM turn out when CCOC(=O)CCNC(=O)c1ccc(Oc2ccc(CN(Cc3ccc(F)cc3F)c3cccc(NS(C)(=O)=O)c3C)cc2)cc1 [Example 68, ethyl N-(4-{4-[((2,4-difluorobenzyl){2-methyl-3-[(methylsulfonyl)amino]phenyl}amino)methyl]phenoxy}benzoyl)-beta-alaninate] was run?
A: 90.4%

Q: How did the inhibition at 1.7 µM turn out when Cc1c(NS(C)(=O)=O)cccc1N(Cc1ccc(Oc2ccc(Cl)c(OCC(=O)O)c2)cc1)Cc1ccccc1Br [Example 307, (5-(4-(((2-bromobenzyl)(2-methyl-3-((methylsulfonyl)amino)phenyl)amino)methyl)phenoxy)-2-chlorophenoxy)acetic acid] was run?
A: 97%

Q: How did the inhibition at 1.7 µM turn out when Cc1c(NS(C)(=O)=O)cccc1N(Cc1ccc(OCc2cc3c(cc2Cl)OCO3)cc1)Cc1ccc(F)cc1F [Example 157, N-{3-[{4-[(6-chloro-1,3-benzodioxol-5-yl)methoxy]benzyl}(2,4-difluorobenzyl)amino]-2-methylphenyl}methanesulfonamide] was run?
A: 91.8%

Q: Which inhibition at 1.7 µM does the source give for Cc1c(NS(C)(=O)=O)cccc1N(Cc1ccccc1)Cc1ccc(Oc2cccc(OC3CCC(C(=O)O)CC3)c2)cc1 (stereo not drawn) [Example 286, 4-(3-{4-[(benzyl{2-methyl-3-[(methylsulfonyl)amino]phenyl}amino)methyl]phenoxy}phenoxy)cyclohexanecarboxylic acid] here?
A: 92.6%

Q: With Cc1c(NS(C)(=O)=O)cccc1N(Cc1ccccc1)Cc1ccc(Oc2cccc(OCCCC(=O)N3CCCCC3C(=O)O)c2)cc1 (stereo not drawn) [Example 281, 1-[4-(3-{4-[(benzyl{2-methyl-3-[(methylsulfonyl)amino]phenyl}amino)methyl]phenoxy}phenoxy)butanoyl]piperidine-2-carboxylic acid] as the compound, how does the inhibition at 1.7 µM read?
A: 90%

Q: Which inhibition at 1.7 µM does the source give for Cc1c(NS(C)(=O)=O)cccc1N(Cc1ccccc1)Cc1ccc(Oc2cccc(OC3CCN(C)C3)c2)cc1 (stereo not drawn) [Example 292, N-{3-[benzyl(4-{3-[(1-methylpyrrolidin-3-yl)oxy]phenoxy}benzyl)amino]-2-methylphenyl}methanesulfonamide] here?
A: 89.4%

Q: For Cc1c(NS(C)(=O)=O)cccc1N(Cc1ccccc1)Cc1ccc(Oc2ccc(OCCCC(=O)N[C@@H](CCC(=O)O)C(=O)O)cc2)cc1 [Example 255, N-[4-(4-{4-[(benzyl{2-methyl-3-[(methylsulfonyl)amino]phenyl}amino)methyl]phenoxy}phenoxy)butanoyl]-L-glutamic acid], which inhibition at 1.7 µM is on record?
A: 93.6%

Q: For CCOc1ccc(CN(Cc2ccc(F)cc2F)c2cccc(NS(C)(=O)=O)c2C)cc1 [Example 142, N-{3-[(2,4-difluorobenzyl)(4-ethoxybenzyl)amino]-2-methylphenyl}methanesulfonamide], which inhibition at 1.7 µM is on record?
A: 90.4%

Q: For Cc1c(NS(C)(=O)=O)cccc1N(Cc1ccccc1)Cc1ccc(Oc2ccc(OCC(=O)N[C@@H](CO)C(=O)O)cc2)cc1 [Example 275, N-[(4-{4-[(benzyl{2-methyl-3-[(methylsulfonyl)amino]phenyl}amino)methyl]phenoxy}phenoxy)acetyl]-L-serine], which inhibition at 1.7 µM is on record?
A: 90.5%
